biological target: Mitogen-activated protein kinase kinase kinase kinase 1 (Homo sapiens, UniProt Q92918); experiment: Biochemical Enzyme Assay
Experimental: HPK1 biochemical enzyme assay: HPK1 enzyme inhibition was measured using a microfluidic mobility shift assay. […] Test compounds were titrated in ten point curves (top final assay concentration 3 μM), and preincubated with enzyme/substrate mix for 30 min prior to initiation of the reaction by addition of ATP (1 mM final concentration) and substrate (1 μM final concentration; Carna Biosciences) diluted in assay buffer supplemented by MgCl2 (final assay concentration of 5 mM). Following 60 min incubation at RT, the reaction was terminated by addition of 60 µl/well termination buffer (Carna Biosciences) and signal determination using aCaliper EZ Reader (Perkin Elmer, UK).

Sequence of Mitogen-activated protein kinase kinase kinase kinase 1 (Q92918 whole entry): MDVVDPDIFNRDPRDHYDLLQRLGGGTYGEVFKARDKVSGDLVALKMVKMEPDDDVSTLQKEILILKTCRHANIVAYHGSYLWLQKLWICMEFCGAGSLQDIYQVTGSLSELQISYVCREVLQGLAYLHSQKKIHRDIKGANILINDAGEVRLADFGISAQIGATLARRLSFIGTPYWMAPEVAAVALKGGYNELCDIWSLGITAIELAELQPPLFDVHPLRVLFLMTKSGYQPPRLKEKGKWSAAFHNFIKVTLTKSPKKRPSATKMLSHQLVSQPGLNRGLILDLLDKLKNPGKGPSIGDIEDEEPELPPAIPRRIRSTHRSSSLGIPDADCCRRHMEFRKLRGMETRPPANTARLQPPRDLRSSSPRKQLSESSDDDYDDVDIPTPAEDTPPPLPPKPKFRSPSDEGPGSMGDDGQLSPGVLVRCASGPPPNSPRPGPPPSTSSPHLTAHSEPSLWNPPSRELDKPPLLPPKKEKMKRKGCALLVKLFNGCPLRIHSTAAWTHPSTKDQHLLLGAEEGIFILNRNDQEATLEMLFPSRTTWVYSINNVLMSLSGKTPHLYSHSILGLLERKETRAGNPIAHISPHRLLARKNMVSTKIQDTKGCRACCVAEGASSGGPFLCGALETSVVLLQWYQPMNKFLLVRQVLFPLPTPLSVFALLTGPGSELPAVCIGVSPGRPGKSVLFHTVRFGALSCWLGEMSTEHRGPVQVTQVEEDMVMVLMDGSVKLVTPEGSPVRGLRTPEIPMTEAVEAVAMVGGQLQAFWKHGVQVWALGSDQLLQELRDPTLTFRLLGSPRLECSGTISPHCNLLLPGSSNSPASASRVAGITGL

Structure (SMILES)	IC50
C[C@@H]1CN(c2c(CN(C)C)cc(Nc3ccc(-c4cnc5cc(F)ccn45)c4c3C(=O)NC4)nc2CN(C)C)CCO1 [US11021481, Compound I-541]	< 100 nM
CN1CC(O)(C2CCCN(c3ccc(Nc4ccc(C5=CNC6C=C(F)C=CN56)c5c4C(=O)NC5)nc3)C2)C1 (stereo not given) [US11021481, Compound I-599]	< 100 nM
O=C1NCc2c(-c3cnc4ccccn34)ccc(Cc3ccn(C4CCOCC4)n3)c21 [US11021481, Compound I-382]	> 1000 nM
Cc1ccnn2c(-c3ncc(Nc4ccc(C5CCOC5)c(CN(C)C)n4)c4c3CNC4=O)cnc12 (stereo not given) [US11021481, Compound I-539]	< 100 nM
Cc1ccn2c(-c3ccc(Nc4ccc(C5CCOC5)c(CN(C)C)n4)c4c3CNC4=O)cnc2c1 (stereo not given) [US11021481, Compound I-561]	< 100 nM
CN1CCN(c2nc(Nc3ccc(-c4cnc5cc(F)ccn45)c4c3C(=O)NC4)cnc2[C@@H]2CCOC2)CC1 [US11021481, Compound I-802]	< 100 nM
Cc1ccn2c(-c3ncc(Nc4cccc(C5CCC6CNCC65)n4)c4c3CNC4=O)cnc2c1F (stereo not given) [US11021481, Compound I-481]	< 100 nM
CNC1CN(c2cccc(Nc3cnc(-c4ccnc5c4ccn5C)c4c3C(=O)NC4)c2)C1 [US11021481, Compound I-449]	< 100 nM
CC(C)(O)[C@@H]1CN(c2ccc(Nc3ccc(-c4cnc5c(C(F)F)cccn45)c4c3C(=O)NC4)nc2)CCO1 [US11021481, Compound I-475]	< 100 nM
Cn1ccc2c(-c3ncc(Nc4ccc(C5CCOC5)c(CN5CCCC5)n4)c4c3CNC4=O)cccc21 (stereo not given) [US11021481, Compound I-552]	< 100 nM
CN1CCN(c2nc(Nc3ccc(-c4cnc5cc(F)ccn45)c4c3C(=O)NC4)cnc2[C@H]2CCOC2)CC1 [US11021481, Compound I-801]	< 100 nM
COCC1(O)CCN(c2ccc(Nc3ccc(-c4ccnc5c4ccn5C)c4c3C(=O)NC4)nc2CN(C)C)CC1 [US11021481, Compound I-851]	< 100 nM
CN(C)Cc1nc(Nc2cnc(-c3cccc4c3ccn4C)c3c2C(=O)NC3)ccc1O[C@@H]1CCOC1 [US11021481, Compound I-805]	< 100 nM
Cn1ccc2c1N=CNC2c1ccc(Nc2ccc(N3CCC(O)CC3)cn2)c2c1CNC2=O (stereo not given) [US11021481, Compound I-144]	< 100 nM
Cc1ccn2c(-c3ncc(Nc4cccc(C5CC[C@@H]6CNC[C@H]56)n4)c4c3CNC4=O)cnc2c1F (stereo not given in full) [US11021481, Compound I-480]	in the range around 550 nM

Reference: BindingDB's records for patent US11021481 (Nimbus Saturn, 2021)
